Where “and” joins values, the source holds several entries; their conditions need not be identical. Equal values may be shown once.
Assays:
[1] = tested on: liver MPS NASH model + TGFβ (PHH, KC and HSC co-cultures, high fat); experiment: Quantitative confocal imaging of collagen-1 and α-SMA in liver MPS NASH model with TGFβ (Fig 6c); assay type: cell-based, human; conditions: for Collagen 1 - fluroscence intensity / aSMA - fluroscence intensity: NASH + TGF, individual replicates; for reduction in collagen-1 deposition / reduction in α-SMA expression: NASH + TGFβ, highest concentrations
Description: The systems biology approach identified TGFβ to be a key driver in creating a more advanced NASH phenotype in the MPS model, with enhanced fibrotic markers and reduced liver function. […] Therefore, we explored how effective pharmacological intervention would be for NASH microtissues with high NPC numbers supplemented with TGFβ and exposed them to varying concentrations of OCA and ELF QD as previously described (Supp. Fig. 6a). […] OCA had the greatest effect on IL-1Rα whereas ELF had the greatest effect on MCP-1 reflecting the fact that while both candidate drugs have anti-inflammatory properties, but their mechanisms of action are different. […] Finally, we used our quantitative fibrosis imaging assay to assess the effect of each candidate drug on collagen-1 deposition and α-SMA expression (Fig. 6c). […] Both candidate drugs caused a significant reduction in collagen-1 deposition and α-SMA expression, with the highest concentrations of OCA and ELF causing an 80% reduction in α-SMA expression and a 75% reduction in collagen-1 deposition (Fig. 6c).
Fig. 6 Using enhanced liver MPS NASH model with TGFβ, Obeticholic acid and Elafibranor modulate disease phenotype to a greater extent than in standard NASH model. PHH, KC and HSC co-cultures were cultured in the MPS platform under high-fat conditions and dosed with varying concentrations of Obeticholic acid (OCA) and Elafibranor (ELF) QD or vehicle control for 10 days, following an initial 4-day pre-culture phase. Throughout the compound dosing period TGFβ was also dosed onto all microtissues (NASH only vehicle control samples were also included in the study for comparison, which were not treated with TGFβ or dosed with any compound). a The secreted cytokine profile from treated liver microtissues was compared to determine the effects of each compound on the inflammatory profile of the liver with samples analysed at day 8 and 14 of the culture. Data were normalised by Z-transformation to allow comparison of all analytes (white = undetected). b The expression of fibrosis-associated biomarkers was analysed on day 14 media samples and compared to NASH + TGFβ control samples. c Liver microtissues were stained for collagen-type I, α-SMA, nuclei (DAPI), phalloidin (green) and imaged by confocal microscopy. Representative images are shown and scale bars 200 µm. Staining of microtissues was quantified by measuring total fluorescence intensity throughout individual microtissues, each data point represents an average of all microtissues per MPS culture (min 8, max 20). All datapoints shown with error bars highlighting means ± SD, all data from a minimum of three independent cultures: all comparisons were made to NASH + TGFβ control samples.
To visualise fibrosis proteins in the liver microtissues, scaffolds were fixed for 15 min in 4% paraformaldehyde following culture in the MPS platform. They were permeabilized with 0.1% Triton-X and blocked with 2% BSA before staining overnight at 4 °C with antibodies against alpha SMA (Abcam, UK - ab7817) and collagen 1 (Rockland, USA—600 401 103 0.5). Scaffolds were then stained with fluorescently conjugated secondary antibodies (Alexa-Fluor 555 goat anti-rabbit #A21429; Alexa-Fluor 647 donkey anti-rabbit #A31573; Alexa-Fluor 555 goat anti-mouse #A21424; Alexa-Fluor 647 goat anti-mouse #A21235 (Thermofisher, UK) along with Phalloidin 488 (Thermofisher, UK) and Hoechst 33342 (Invitrogen) for 1.5 h at room temperature. Scaffolds were washed three times with PBS and mounted onto glass microscope slides with anti-fade mounting medium. Confocal fluorescent images of the stained scaffolds were captured using a Cell Voyager 7000 (CV700, Yokogawa Inc.) automated confocal microscope. Image acquisition was controlled using the SearchFirst functionality of the Wako Software suite (Fujifilm Wako Automation). A workflow was designed to automatically locate and acquire images of each scaffold in a consistent and unbiased manner (Supp. Fig. 1). […]

[2] = Protein binding in HEP-Fat cell culture media by rapid equilibrium dialysis; assay type: in vitro ADME; conditions: for fraction unbound: HEP-Fat cell culture media, HEP-FAT media, rapid-equilibrium dialysis
Protocol: Despite many on-going clinical trials, there is still no approved treatment for NASH, but emerging data provide confidence that NASH is a pharmacologically responsive disease. […] First, we set out to determine an optimal dosing strategy for each of the treatments based on an assessment of their physicochemical properties and pharmacokinetic behaviour within the MPS device (Table 1). Non-specific binding to the MPS device was determined after a 72 h incubation with each candidate drug at 1 μM (Table 1). Both candidate drugs were calculated to have less than 0.1% loss as a consequence of non-specific binding to the MPS device (Table 1). […] Because the hepatocytes within the MPS device are metabolically competent, we evaluated the half-life for each candidate drug in NASH microtissues.
To determine the metabolic turnover of obeticholic acid and elafibranor in the MPS platform, both compounds were incubated with liver microtissues for 48 h starting at 1 µM and media samples taken at regular intervals (AdooQ Bioscience, UK). The presence of each compound in the cell culture medium was quantified by liquid chromatography-tandem mass spectrometry (LC-MS/MS). Samples were separated using a Waters Acquity UPLC system with an ACE Excel C18-AR column and analysed on a Waters TQ-S Micro mass spectrometer against quantitative standard curves. Both compounds were also assessed for protein binding in HEP-Fat media using rapid equilibrium dialysis (RED) and quantified using the same LC-MS/MS methodology.

Compound	collagen-1 and α-SMA signal, fat and TGFβ compared to just fat alone ([1]; NASH microtissues, high NPC)	fraction unbound [2]	Protein binding within the fat culture medium [2]	Collagen 1 - fluroscence intensity ([1]; 1.3 uM, listed as ELF)	aSMA - fluroscence intensity ([1]; 1.3 uM, listed as ELF)	Collagen 1 - fluroscence intensity ([1]; 13 uM, listed as ELF)	aSMA - fluroscence intensity ([1]; 13 uM, listed as ELF)	Collagen 1 - fluroscence intensity ([1]; 65 uM, listed as ELF)	aSMA - fluroscence intensity ([1]; 65 uM, listed as ELF)	reduction in collagen-1 deposition [1] [%]	reduction in α-SMA expression [1] [%]	Collagen 1 - fluroscence intensity ([1]; 0.25 uM, listed as OCA)	aSMA - fluroscence intensity ([1]; 0.25 uM, listed as OCA)	Collagen 1 - fluroscence intensity ([1]; 5 uM, listed as OCA)	aSMA - fluroscence intensity ([1]; 5 uM, listed as OCA)	Collagen 1 - fluroscence intensity ([1]; 12.5 uM, listed as OCA)	aSMA - fluroscence intensity ([1]; 12.5 uM, listed as OCA)
TGFβ: recombinant TGF beta 1 protein (Abcam), 1 ng/ml cue	significant increase	–	–	–	–	–	–	–	–	–	–	–	–	–	–	–	–
CSc1ccc(C(=O)/C=C/c2cc(C)c(OC(C)(C)C(=O)O)c(C)c2)cc1 [Elafibranor]	–	0.02	highly protein-bound	1733.28 and 2118.75 and 2931.26	730.875 and 499.771 and 815.833	1948.99 and 2325.43	408.818 and 783.286	815.347 and 1263.35 and 1286.58	106.491 and 171.359 and 165.195	75	80	–	–	–	–	–	–
CC[C@H]1[C@@H](O)[C@@H]2[C@H](CC[C@]3(C)[C@@H]([C@H](C)CCC(=O)O)CC[C@@H]23)[C@@]2(C)CC[C@@H](O)C[C@@H]12 [Obeticholic acid]	–	< 0.01	highly protein-bound	–	–	–	–	–	–	75	80	1951.11 and 3372.52 and 2271.93	697.585 and 1188.53 and 484.974	1987.74 and 1316.74 and 1611.55	480.346 and 350.765 and 416.589	1674.28 and 412.802 and 1126.69	287.458 and 39.7737 and 104.277
